From PubChem BioAssay (NCI) come the findings set out here.

Holding throughout (assay): NCI anticancer screen, dose series, 48 h
Assay [1] has as its system NCI-H522 lung.
Assay [2] relates to NCI/ADR-RES ovarian.
Assay [3] has as its system MCF7 breast.
The test system of assay [4] is SK-OV-3 ovarian.
For assay [5], the system named is SF-268 CNS.
The test system of assay [6] is SK-MEL-28 melanoma.
Assay [7] has as its system CCRF-CEM leukemia.
Assay [8] relates to MALME-3M melanoma.
For assay [9], the system named is UACC-62 melanoma.
For assay [10], the system named is HT29 colon.

Each structure is given as a SMILES string. Values joined by “and” are separate entries in the source; they are usually repeats but may differ in a detail not shown here. Equal entries are not always repeated.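 Protocol summary: plate cells (96-well), add compound at 5 concentrations, incubate 48 h, interpolate endpoints linearly. The concentration for 50% growth inhibition is given as GI50. The concentration for full growth arrest is given as TGI.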

Regarding `O=C(NC(=O)c1c(F)cccc1F)Nc1cccc(Oc2ncc(Cl)cn2)c1`, the TGI in assay [1] is > 100 µM; in [2], > 100 µM; in assay [3], > 100 µM; in [4], > 93.3 µM; in assay [5], 77.3 µM; in assay [6], > 100 µM. Further, the TGI in assay [7] is > 100 µM; in [8], > 100 µM; in assay [9] it was > 100 µM; in assay [10], > 46.4 µM.
`CNC(=O)OCc1nc(SSC(C)(C)C)n(C)c1COC(=O)NC`: the TGI in [1] came to 2.69 µM; in [2], 20.3 µM; in [3] it was 15.5 µM; in assay [4], 31.1 µM; in assay [5], 16.7 µM; in assay [6], 4.67 µM. Also, the TGI in assay [7] stood at 4.54 µM; in assay [8], 3.76 µM; in [9] it was 5.09 µM; in assay [10], 13.3 µM.
Take `CCN(CC)CCCC(CCl)Nc1ccnc2cc(Cl)ccc12` (configuration not stated): the GI50 in [1] is 25.7 µM and 25.1 µM; in assay [2], 25.2 µM and 23.1 µM; in assay [3], 23.9 µM and 27.9 µM; in [4], > 100 µM; in assay [5], 17.1 µM and 21.6 µM; in assay [6], 18.8 µM and 19 µM. Also, the GI50 in assay [7] was 13.7 µM and 16.9 µM; in assay [8], 8.53 µM and 4.95 µM; in assay [9], 20 µM and 6.69 µM; in [10], 14.7 µM and 6.38 µM. Besides, the TGI was 67.8 µM and > 73.6 µM in assay [1]; 57.3 µM and 67.7 µM in [2]; 75.2 µM and > 87.2 µM in assay [3]; > 100 µM in [4]; 49.8 µM and 97 µM in assay [5]; 54.7 µM and > 63 µM in assay [6]. Besides, the TGI in [7] is 39.7 µM and 51.5 µM; in assay [8], 21.1 µM and 20.1 µM; in assay [9] it was 38.7 µM and 34.8 µM; in assay [10] it was > 100 µM.
In the case of `Oc1ccc2ccccc2c1N=Nc1cccc2ccccc12`, the TGI in assay [1], in assay [2], in [3], in assay [4], in [5] and in [6] was > 100 µM throughout. In addition, the TGI in assay [7], in assay [8], in [9] and in assay [10] was > 100 µM each time.
For the compound `N[C@H](C(=O)O)[C@@H]1CC(Cl)=NO1`, the TGI in assay [1] is 271 µM; in assay [2], 530 µM; in assay [3], 325 µM; in assay [4], > 584 µM; in assay [5], > 848 µM; in [6], > 1000 µM. For the same compound, the TGI is 700 µM in [7], 542 µM in assay [8], 401 µM in assay [9] and > 811 µM in [10]. In addition, the GI50 is 37.7 µM in assay [2]; 4.77 µM in assay [3]; 34.5 µM in assay [4]; 10.2 µM in assay [5]; 28.9 µM in assay [6]; 5.76 µM in [7]. In addition, the results for the GI50 in assay [9] and in assay [10] were 35.1 µM and 7.44 µM, respectively.
Regarding `CSC(SC)(C(=O)O)c1cc(-c2c(Cl)cccc2Cl)no1`, the TGI in assay [1] was 80.3 µM; in assay [2], > 100 µM; in assay [3], > 100 µM; in assay [4], > 100 µM; in [5], > 100 µM; in [6], > 100 µM. For the same compound, the TGI in [7], in assay [8], in assay [9] and in [10] was > 100 µM throughout.
On to `CN(C)Cc1cc(C(F)(F)F)ccc1C(O)(c1ccccc1)c1ccccc1`, for which the TGI was determined as 35 µM in assay [1]; 30.4 µM in [2]; 27.4 µM in assay [3]; 56.5 µM in assay [4]; 34.3 µM in assay [5]; 31 µM in assay [6]. For the same compound, the TGI in assay [7] turned out to be 28.9 µM; in assay [8] it was 33.9 µM; in assay [9], 26 µM; in [10], 21.6 µM.
Turning to `O=C(Oc1ccc[nH]c1=O)c1cc([N+](=O)[O-])cc([N+](=O)[O-])c1`, the GI50 in assay [1], in [2], in assay [3], in assay [4], in assay [5] and in assay [6] was > 100 µM each time. Besides, the GI50 was 79 µM in assay [7], 51.7 µM in [8], 20.9 µM in assay [9] and > 100 µM in assay [10]. Besides, the TGI in assay [1], in assay [2], in assay [3], in assay [4], in assay [5] and in assay [6] was > 100 µM in each case. In addition, the TGI in assay [7], in assay [8], in [9] and in [10] was > 100 µM throughout.
In the case of `Cn1c(Cl)c(/C=C2/C(=O)Nc3ccccc32)c2ccccc21`, the GI50 was 2.39 µM in assay [1]; 0.371 µM in [2]; 0.198 µM in assay [3]; 0.732 µM in [4]; 4.08 µM in assay [5]; 1.08 µM in assay [6]. The GI50 in assay [7] was 0.592 µM; in assay [8] it was 0.179 µM; in assay [9], 0.13 µM; in [10], 0.144 µM. Further, the TGI in assay [1] was 22.4 µM; in assay [2], 3.57 µM; in assay [4], 10.5 µM; in assay [5] it was > 35.7 µM; in assay [6], 19.7 µM; in [7], > 22.1 µM. In addition, the figures for the TGI in assay [8], in assay [9] and in [10] were 15.3 µM, 7.1 µM and > 100 µM, respectively.
In the case of `CC(C)C(O)(C(C)C)C(C)C`, the TGI in assay [1], in assay [2], in assay [3], in [4], in assay [5] and in assay [6] was > 100 µM each time. For the same compound, the TGI in assay [7], in [8], in [9] and in [10] was > 100 µM each time.
